Test results reported in ChEMBL document CHEMBL3044641, “Design and synthesis of some novel 3-[5-(4-substituted) phenyl-1,3,4-oxadiazole-2yl]-2-phenylquinazoline-4(3H)-ones as possible anticonvulsant agent” (Med Chem Res, 2011).
Activity calls are given as the source filed them. The rule behind the calls is not given here.

Key:
Mus musculus [1] = assay: Neurotoxicity in Mus musculus albino (mouse) assessed as minimal motor impairment at 300 mg/kg, ip after 4 hr by rotarod test; format: toxicity, organism-based; set-up: dose 300 mg/kg, route intraperitoneal; conditions: in vivo
Mus musculus [2] = assay: Neurotoxicity in ip dosed Mus musculus albino (mouse) assessed as minimal motor impairment after 0.5 hr by rotarod test; format: toxicity, organism-based; conditions: in vivo
Mus musculus [3] = assay: Anticonvulsant activity in Mus musculus albino (mouse) assessed as protection against subcutaneous metrazole-induced seizure at 300 mg/kg, ip after 4 hr; format: functional, organism-based; set-up: dose 300 mg/kg
Mus musculus [4] = assay: Anticonvulsant activity in Mus musculus albino (mouse) assessed as protection against subcutaneous metrazole-induced seizure at 300 mg/kg, ip after 0.5 hr; format: functional, organism-based; set-up: dose 300 mg/kg
Mus musculus [5] = assay: Anticonvulsant activity in ip dosed Mus musculus albino (mouse) assessed as protection against maximal electroshock-induced seizure after 4 hr; format: functional; conditions: read-out: MED
Mus musculus [6] = assay: Anticonvulsant activity in ip dosed Mus musculus albino (mouse) assessed as protection against maximal electroshock-induced seizure after 0.5 hr; format: functional; conditions: read-out: MED
Mus musculus [7] = assay: Neurotoxicity in ip dosed Mus musculus albino (mouse) assessed as minimal motor impairment after 4 hr by rotarod test; format: toxicity, organism-based; conditions: in vivo
Mus musculus [8] = assay: Anticonvulsant activity in Mus musculus albino (mouse) assessed as protection against maximal electroshock-induced seizure at 300 mg/kg, ip after 0.5 hr; format: functional, organism-based; set-up: dose 300 mg/kg
Mus musculus [9] = assay: Anticonvulsant activity in Mus musculus albino (mouse) assessed as protection against maximal electroshock-induced seizure at 300 mg/kg, ip after 4 hr; format: functional, organism-based; set-up: dose 300 mg/kg
Mus musculus [10] = assay: Neurotoxicity in Mus musculus albino (mouse) assessed as minimal motor impairment at 300 mg/kg, ip after 0.5 hr by rotarod test; format: toxicity, organism-based; set-up: dose 300 mg/kg, route intraperitoneal; conditions: in vivo
Mus musculus [11] = assay: Anticonvulsant activity in ip dosed Mus musculus albino (mouse) assessed as protection against subcutaneous metrazole-induced seizure after 4 hr; format: functional; conditions: read-out: MED
Mus musculus [12] = assay: Anticonvulsant activity in ip dosed Mus musculus albino (mouse) assessed as protection against subcutaneous metrazole-induced seizure after 0.5 hr; format: functional; conditions: read-out: MED

Row | SMILES | Activity (Mus musculus [1]) | Activity (Mus musculus [2]) [mg/kg] | Activity (Mus musculus [3]) | Activity (Mus musculus [4]) | minimal effective dose (Mus musculus [5]) [mg/kg] | minimal effective dose (Mus musculus [6]) [mg/kg] | Activity (Mus musculus [7]) [mg/kg] | Activity (Mus musculus [8]) | Activity (Mus musculus [9]) | Activity (Mus musculus [10]) | minimal effective dose (Mus musculus [11]) [mg/kg] | minimal effective dose (Mus musculus [12]) [mg/kg]
1 | O=c1c2ccccc2nc(-c2ccccc2)n1-c1nnc(-c2ccc(F)cc2)o1 | Non-toxic | 300 | inactive | inactive | 300 | 300 |  |  |  |  |  | 
2 | COc1ccc(-c2nnc(-n3c(-c4ccccc4)nc4ccccc4c3=O)o2)cc1 |  | 300 | inactive | inactive |  |  | 300 | inactive | inactive |  |  | 
3 | Cc1ccc(-c2nnc(-n3c(-c4ccccc4)nc4ccccc4c3=O)o2)cc1 |  |  | inactive | inactive |  |  | 300 | inactive | inactive | Non-toxic |  | 
4 | NC(=O)N1c2ccccc2C=Cc2ccccc21 [CARBAMAZEPINE] |  | 100 |  |  | 100 | 30 | 300 |  |  |  | 300 | 100
5 | O=c1c2ccccc2nc(-c2ccccc2)n1-c1nnc(-c2ccc([N+](=O)[O-])cc2)o1 |  | 300 | inactive | inactive |  |  | 300 | inactive | inactive |  |  | 
6 | O=c1c2ccccc2nc(-c2ccccc2)n1-c1nnc(-c2ccc(Cl)cc2)o1 | Non-toxic |  | inactive | inactive |  |  |  | inactive | inactive | Non-toxic |  | 
7 | O=C1NC(=O)C(c2ccccc2)(c2ccccc2)N1 [PHENYTOIN] |  | 100 | inactive | inactive | 30 | 30 | 100 |  |  |  |  | 
8 | O=c1c2ccccc2nc(-c2ccccc2)n1-c1nnc(-c2ccccc2)o1 | Non-toxic |  | inactive | inactive |  | 300 |  |  | inactive | Non-toxic |  | 
